Source: article PMC4912613, “A broad analysis of resistance development in the malaria parasite” (Nature Communications, 2016)

Legend:
[1] = test system: P. falciparum 3D7, Dd2, Dd2Δexo; test: In vitro evolution of compound-resistant lines (selection); type: cell-based, Plasmodium falciparum; details: for # of Resistant Strains Generated: resistant cultures out of three independent cultures; for EC50 fold shifts observed: selected parasites vs selection parent
From the text: While we found an overall lack of pre-existing resistance, analysing the onset of resistance was critical, as compounds resulting in rapid resistance are not ideal for clinical development. We therefore sought to create drug-resistant parasites using a variety of different selection methods. We implemented either a high-dose method or a ramp-up/pulse method for our in vitro selections. Two of the 50 compounds—MMV028895 and MMV665824—were removed from the selection study during experimentation. […] Out of the remaining 48 compounds, resistant parasites were obtained for 23 (Supplementary Data 1). As each selection was performed in triplicate with three independent cultures, we succeeded in generating a total of 66 resistant cultures. Parasites resistant to MMV026596 were not obtained despite 100 days of selection, but the cultures acquired hypersensitivity to mefloquine with a 10-fold reduction in EC50 compared with its parental line, 3D7. For the remaining 24 compounds, acquisition of resistant parasites was unsuccessful despite numerous attempts over an extensive period of time.
Based on the compound speed of action and lab specialty, selections were conducted using a high-pressure intermittent selection method, a step-wise selection method, or a constant selection method. For high-pressure selections, ∼1–2 × 10^9 parasites were treated at a concentration of 3–10 × EC50 until parasites could not be seen by microscopy (4–10 days). Following treatment, compound pressure was removed and cultures were allowed to recover. Once healthy parasites were seen and parasitemia reached ∼2%, compound pressure was reinstated. For step-wise selections, ∼1 × 10^8 parasites were treated at a starting concentration resulting in a reduced growth rate of 50%. Cultures were examined daily by microscopy, increasing compound concentration in increments of 5–10% as needed to maintain a 50% reduced growth rate. Selections were carried out until cultures achieved a reproducible EC50 fold shift of >3 × . Finally, constant selections were conducted in a similar manner to the high-pressure intermittent method with the exception that compound pressure was never removed. Following successful selection, cultures were cloned out using a limiting dilution method as previously described. Selections were terminated after 200 days if resistance could not be obtained.

[2] = test system: ProRS (prolyl t-RNA synthetase L482H, parent Dd2); test: Cross-resistance EC50 assay, ProRS; type: cell-based; details: Plasmodium falciparum; SYBR green 72 hour assay; synchronized parasites; 384-well format; strain ProRS (Dd2 parent)
From the text: (§1) To evaluate potential overlapping activity against known antimalarial drug targets, we performed dose-response studies with each compound against our assembled set of drug-resistant lines and their corresponding parents, in an asexual blood stage proliferation assay (Table 1). Comparisons were made to the drug-sensitive strain 3D7 when a parent was unavailable (TM90C2A, W2 and Dd2). As laboratories conducted EC50 assays with different strains and protocols, all comparisons were made between assays from the same laboratory and under the same assay conditions. Compounds displaying >5-fold EC50 shifts relative to the parent or sensitive strain were flagged as having potentially non-novel targets. Average fold shifts per strain ranged from 0.82 to 2.34, with a median of 1.23 indicating there was not common resistance to any one resistant clone. No resistance patterns were observed when classifying the compounds based on chemical structure, but this was not surprising given the diversity of compounds chosen. On the other hand, given that these confirmed compounds were derived from larger unconfirmed hit lists to which some filtration criteria may have been applied (for example, elimination of obvious dihydrofolate reductase inhibitors[32]), some[10][11][12][13] pre-existing bias may exist in the set. […]
(§2) Alternatively, a SYBR Green-based proliferation approach was used for the 72-h assay, as previously described. Briefly, a culture of either synchronized or asynchronous parasitized RBCs (0.3% parasitemia and 4% haematocrit) in screening medium (identical to supplemented medium above except no serum was added) was exposed to serial drug dilutions. Plates were incubated at 37 °C and gassed with 93% N2, 4% CO2 and 3% O2 for 72 h. Following incubation, 10 × SYBR Green I (Invitrogen; supplied in 10,000 × concentration) in lysis buffer ([…], 5 mM EDTA, 0.16% Saponin wt per vol and 1.6% Triton X vol per vol) was added to the wells and the plates were incubated overnight at room temperature before plate reading. EC50 assays were repeated three times, taking the average EC50 value from each assay set, and removing any outliers using a single iteration of Grubbs' test, eliminating values with z-scores above the critical z-value (α=0.05). The raw EC50 values for synchronized parasites assayed in a 384-well format are listed in Supplementary Data 4. The raw EC50 values for asynchronous parasites assayed in a 96 or 1536-well format are listed in Supplementary Data 5.
(§3) EC50 values for each strain were compared with those of the corresponding parent strain to determine fold-shift changes and identify resistance. To minimize the cause variance between assays, all comparisons were conducted between strains assayed under identical conditions. A one-way ANOVA followed by a Dunnet's post-test was conducted in GraphPad Prism to identify significant changes between the parent and resistant strain.

[3] = test system: HepG2; test: Hepatocyte toxicity; type: cell-based, human; details: for Hepatocyte Toxicity: HepG2; for EC50 fold shift compared to asexual stage: Hepatocyte Toxicity: hepatocyte toxicity / 3D7 EC50; for Liver Stage / Hepatocyte Toxicity: toxicity fold shift for the liver stage (hepatocyte toxicity vs liver stage EC50)
From the text: As drugs that eliminate multiple stages of the parasite lifecycle will be critical components in global efforts to eliminate malaria, we were interested in knowing whether the compounds in our study had additional activities against either the liver and/or transmission stages of the parasite lifecycle. To determine this, we first evaluated the compounds in additional phenotypic assays. The first assay was a P. berghei hepatocyte invasion and development assay, which predicts causal prophylactic activity. Hepatocyte toxicity was additionally tested to identify false-positive activity in the liver stage due to host-cell toxicity. Assays were executed in duplicate using a 12-point EC50 curve at starting concentrations of 5 μM or 50 μM (Supplementary Table 1).
Liver-stage activity was determined by pretreating hepatic human cells (HepG2) for 2 h with compound in 1,536-well plates infected with freshly dissected P. berghei sporozoites. After 48 h of incubation, the viability of P. berghei exoerythrocytic forms was measured by luminescence reaction light output using BrightGlo (Promega). Varying levels of compound concentration were used (5 μM or 50 μM) due to the stock concentration supplied.

[4] = test system: hsp90 (D88Y, parent Dd2); test: Cross-resistance EC50 assay, hsp90; type: cell-based; details: Plasmodium falciparum; SYBR green 72 hour assay; synchronized parasites; 384-well format; strain HSP90 (Dd2 parent)
From the text: as §1, §2, §3

Compound | Time Length to Obtain Mutants ([1]; in vitro selection) | # of Resistant Strains Generated [1] | EC50 fold shifts observed [1] | EC50 [2] [nM] | Hepatocyte Toxicity [3] [µM] | EC50 fold shift compared to asexual stage: Hepatocyte Toxicity [3] | Liver Stage / Hepatocyte Toxicity [3] | EC50 [4] [nM] | acquisition of resistant parasites ([1]; in vitro selection)
CN(C)S(=O)(=O)c1cc(-c2ccc3nccc(-c4cccc(S(N)(=O)=O)c4)c3c2)cnc1N [MMV024038] | SHORT (0-50 days) | 0/3 | no shift | 143 | 0.1461 | 0.64 | 13.52 | 128 | –
COc1ccccc1CNC(=O)CCn1c(=O)[nH]c2ccsc2c1=O [MMV019066] | SHORT (0-50 days) | 3/3 | >15x | 42 | > 5 | > 3 | > 15 | 15 | –
Cc1ccc(Cn2c(N3CCC(C(=O)NCc4cccs4)CC3)nc3ccccc32)cc1 [MMV007564] | SHORT (0-50 days) | 3/3 | 7-12x | 416 | > 6.6 | > 57 | > 21 | 710 | –
CC(NCc1ccccc1)c1cc(Cl)ccc1O (stereo not shown) [MMV665789] | MODERATE (50-125 days) | 2/3 | 3-7x | 334 | > 5 | > 4 | – | 557 | –
COc1ccc(-c2nc(NC(=O)Cc3ccc4c(c3)OCCO4)sc2C)cc1 [MMV019719] | MODERATE (50-125 days) | 3/3 | 3x | 244 | 20.33 | 123.96 | 1.94 | 281 | –
CCC(C)NCC(O)(c1ccc(Cl)cc1)c1ccc(Cl)cc1 (stereo not shown) [MMV665928] | SHORT (0-50 days) | 0/3 | no shift | 360 | > 5 | > 10 | – | 501 | –
CC(C)c1cccc(C(NC(=O)C2Cc3ccccc3CN2C(=O)c2cccc(N3CCOCC3)c2)C2CCCC2)c1 (stereo not shown) [MMV028038] | MODERATE (50-125 days) | 3/3 | 5-30x | 297 | 19.24 | 35.63 | 3.59 | 432 | –
COc1cc(-c2nc(-c3ccccc3)c(-c3ccccc3)[nH]2)cc(OC)c1O [MMV020750] | LONG (> 125 days) | 0/3 | no shift | 919 | > 5 | > 15 | > 1 | 700 | –
COc1ccc(N2CCN(C(CNC(=O)C3CCCCC3)c3ccc4c(c3)OCO4)CC2)cc1 (stereo not shown) [MMV019662] | MODERATE (50-125 days) | 3/3 | 15x | 481 | > 50 | > 147 | > 2.65 | 790 | –
CC(C)(C)OC(=O)N1CCN(c2ccccc2NC(=O)c2cccc(C(F)(F)F)c2Oc2ccc(F)cc2)CC1 [MMV030666] | LONG (> 125 days) | 0/3 | no shift | 284 | 10.17 | 20.93 | 16.60 | 321 | –
CCN(CC)S(=O)(=O)c1ccc(-c2csc(Nc3ccc(C)c(C)c3)n2)cc1 [MMV009108] | SHORT (0-50 days) | 3/3 | 9x | 373 | > 5 | > 5.3 | > 1 | 512 | –
CNCc1ccc2nc(-c3coc(Cc4cc(Cl)ccc4OCC(C)C)n3)[nH]c2c1.Cl.Cl [MMV026596] | LONG (> 125 days) | 0/3 | no shift | 349 | 13.42 | 38.79 | 2.07 | 373 | not obtained
COc1ccc(C(=O)C2CC2c2ccc(Cl)cc2)cc1 (stereo not shown) [MMV665924] | SHORT (0-50 days) | 3/3 | 3-5x | 966 | > 5 | > 6 | – | 1680 | –
O=C(NC(c1ccccc1)c1ccc2cccnc2c1O)c1ccccc1 (stereo not shown) [MMV666080] | LONG (> 125 days) | 0/3 | no shift | 571 | 1.309 | 1.55 | 2.82 | 645 | –
Cc1ccc(Oc2ncccc2C(=O)Cc2cccc3cccnc23)c(C)c1 [MMV020746] | SHORT (0-50 days) | 3/3 | 6-19x | 278 | 31.56 | 415.26 | 2.61 | 200 | –
